Where two headings read alike, the source gives them in different places.
Assays:
[1] = molecular target: T1, AEA-DA lipid probe targets in Neuro2a cells (Mus musculus, UniProt Q9DC61)
T1 sequence (Q9DC61 34-524): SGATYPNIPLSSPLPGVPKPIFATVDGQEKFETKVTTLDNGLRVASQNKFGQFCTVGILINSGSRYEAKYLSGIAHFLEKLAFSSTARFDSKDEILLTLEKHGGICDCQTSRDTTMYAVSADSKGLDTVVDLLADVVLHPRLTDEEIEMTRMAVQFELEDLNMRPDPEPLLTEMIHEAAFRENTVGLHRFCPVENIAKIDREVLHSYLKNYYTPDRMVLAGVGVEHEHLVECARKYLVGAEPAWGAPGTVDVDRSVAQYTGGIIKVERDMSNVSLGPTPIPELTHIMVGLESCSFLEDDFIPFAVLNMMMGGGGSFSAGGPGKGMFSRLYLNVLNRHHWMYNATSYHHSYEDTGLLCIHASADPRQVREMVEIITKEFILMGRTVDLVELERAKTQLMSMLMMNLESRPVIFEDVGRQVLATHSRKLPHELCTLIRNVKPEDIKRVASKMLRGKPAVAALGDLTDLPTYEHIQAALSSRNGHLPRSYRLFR

[2] = molecular target: T2, AEA-DA lipid probe targets in Neuro2a cells (Mus musculus, UniProt Q9CY50)
T2 sequence (Q9CY50 22-286): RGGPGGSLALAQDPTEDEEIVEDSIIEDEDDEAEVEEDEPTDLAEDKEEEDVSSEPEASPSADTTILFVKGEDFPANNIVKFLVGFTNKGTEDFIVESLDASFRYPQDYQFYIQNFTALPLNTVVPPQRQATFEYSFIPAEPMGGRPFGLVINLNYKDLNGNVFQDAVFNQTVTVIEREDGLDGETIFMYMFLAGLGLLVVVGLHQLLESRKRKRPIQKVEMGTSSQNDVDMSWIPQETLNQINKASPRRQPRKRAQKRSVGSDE

[3] = molecular target: AEA-DA lipid probe targets in Neuro2a cells (Mus musculus, UniProt Q60932); settings: Neuro2a cells, AEA-DA probe
[4] = molecular target: T3, AEA-DA lipid probe targets in Neuro2a cells (Mus musculus, UniProt Q8C3X8)
T3 sequence (Q8C3X8 1-702): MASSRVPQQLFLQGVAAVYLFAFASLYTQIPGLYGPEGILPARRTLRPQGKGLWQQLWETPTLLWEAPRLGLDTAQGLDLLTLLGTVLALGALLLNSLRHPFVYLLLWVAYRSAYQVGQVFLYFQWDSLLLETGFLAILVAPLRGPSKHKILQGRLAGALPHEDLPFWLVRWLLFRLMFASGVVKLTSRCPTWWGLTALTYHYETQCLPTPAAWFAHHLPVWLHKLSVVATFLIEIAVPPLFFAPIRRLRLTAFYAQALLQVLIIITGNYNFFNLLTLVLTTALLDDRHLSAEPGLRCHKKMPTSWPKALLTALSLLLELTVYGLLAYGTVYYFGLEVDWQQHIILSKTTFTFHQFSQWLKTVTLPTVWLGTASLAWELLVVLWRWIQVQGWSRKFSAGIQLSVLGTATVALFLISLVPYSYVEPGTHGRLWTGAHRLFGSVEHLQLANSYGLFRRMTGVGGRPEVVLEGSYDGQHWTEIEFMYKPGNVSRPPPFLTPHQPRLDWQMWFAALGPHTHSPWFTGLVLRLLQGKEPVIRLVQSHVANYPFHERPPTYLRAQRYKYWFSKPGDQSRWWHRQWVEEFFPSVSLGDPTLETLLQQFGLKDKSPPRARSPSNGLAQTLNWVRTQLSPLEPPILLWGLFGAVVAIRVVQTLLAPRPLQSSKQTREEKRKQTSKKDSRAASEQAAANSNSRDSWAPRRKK

[5] = molecular target: T4, AEA-DA lipid probe targets in Neuro2a cells (Mus musculus, UniProt Q8CFE6)
T4 sequence (Q8CFE6 1-504): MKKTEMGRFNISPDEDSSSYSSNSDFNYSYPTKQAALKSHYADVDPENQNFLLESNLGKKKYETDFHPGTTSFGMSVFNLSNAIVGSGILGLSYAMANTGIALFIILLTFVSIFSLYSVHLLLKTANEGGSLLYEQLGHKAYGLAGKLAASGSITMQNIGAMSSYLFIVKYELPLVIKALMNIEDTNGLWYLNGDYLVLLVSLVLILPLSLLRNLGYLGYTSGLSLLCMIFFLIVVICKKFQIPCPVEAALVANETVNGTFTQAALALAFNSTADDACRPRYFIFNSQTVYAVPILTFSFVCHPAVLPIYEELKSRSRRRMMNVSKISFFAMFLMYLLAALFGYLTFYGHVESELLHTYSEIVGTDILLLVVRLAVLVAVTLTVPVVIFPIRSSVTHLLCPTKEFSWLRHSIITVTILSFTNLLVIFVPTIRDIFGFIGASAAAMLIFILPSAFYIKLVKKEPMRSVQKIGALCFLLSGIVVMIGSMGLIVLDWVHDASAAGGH

[6] = molecular target: AEA-DA lipid probe targets in Neuro2a cells (Mus musculus, UniProt O89079)
[7] = molecular target: T5, AEA-DA lipid probe targets in Neuro2a cells (Mus musculus, UniProt Q03517)
T5 sequence (Q03517 31-617): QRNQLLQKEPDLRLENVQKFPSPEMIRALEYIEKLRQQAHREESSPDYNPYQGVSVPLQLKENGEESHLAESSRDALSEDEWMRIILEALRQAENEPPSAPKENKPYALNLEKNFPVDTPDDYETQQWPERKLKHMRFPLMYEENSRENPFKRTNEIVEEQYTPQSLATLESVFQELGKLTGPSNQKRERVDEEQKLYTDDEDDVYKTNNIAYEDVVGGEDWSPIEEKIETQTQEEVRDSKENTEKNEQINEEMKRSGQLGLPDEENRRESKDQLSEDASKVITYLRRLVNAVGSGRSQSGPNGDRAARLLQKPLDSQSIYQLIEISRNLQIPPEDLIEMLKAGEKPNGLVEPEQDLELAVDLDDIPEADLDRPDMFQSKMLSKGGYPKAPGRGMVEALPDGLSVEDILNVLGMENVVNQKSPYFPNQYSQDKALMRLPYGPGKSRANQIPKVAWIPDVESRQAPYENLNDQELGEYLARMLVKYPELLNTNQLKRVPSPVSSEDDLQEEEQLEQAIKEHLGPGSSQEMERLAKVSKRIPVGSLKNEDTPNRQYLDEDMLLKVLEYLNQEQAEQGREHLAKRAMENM

Chain of AEA-DA lipid probe targets in Neuro2a cells (Mus musculus, UniProt O89079) (O89079 whole entry): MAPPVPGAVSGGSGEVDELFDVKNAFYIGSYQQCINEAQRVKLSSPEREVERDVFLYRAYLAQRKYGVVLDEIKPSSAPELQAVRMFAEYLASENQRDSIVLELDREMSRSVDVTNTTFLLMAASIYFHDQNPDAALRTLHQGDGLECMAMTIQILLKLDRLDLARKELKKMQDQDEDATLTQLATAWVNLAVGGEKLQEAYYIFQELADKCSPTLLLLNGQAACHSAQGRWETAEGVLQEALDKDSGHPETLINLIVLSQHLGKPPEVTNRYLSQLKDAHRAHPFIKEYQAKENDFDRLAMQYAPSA
Chain of AEA-DA lipid probe targets in Neuro2a cells (Mus musculus, UniProt Q60932) (Q60932 whole entry): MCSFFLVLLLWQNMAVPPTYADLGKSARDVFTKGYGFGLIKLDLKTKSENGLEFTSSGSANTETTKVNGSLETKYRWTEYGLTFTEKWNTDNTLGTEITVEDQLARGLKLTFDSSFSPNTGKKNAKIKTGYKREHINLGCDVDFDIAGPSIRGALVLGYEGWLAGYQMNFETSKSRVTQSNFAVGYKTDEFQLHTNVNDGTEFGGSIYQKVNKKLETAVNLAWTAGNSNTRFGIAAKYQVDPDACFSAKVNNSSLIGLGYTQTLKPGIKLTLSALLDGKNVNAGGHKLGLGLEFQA

CCCCC/C=C\C/C=C\C/C=C\C/C=C\CCCC(=O)NCCO [AEA, anandamide, reference compound]
SILAC ratio, Pmpca ([1]; competitor 200 μM): 1.9 | SILAC ratio, Ssr1 ([2]; competitor 200 μM): 1.9 | SILAC ratio, VDAC1 (P21796) ([3]; competitor 200 μM): 1.1 | SILAC ratio Lmf2 ([4]; competitor 200 μM): 1.9 | SILAC ratio Slc38a2 ([5]; competitor 200 μM): 1.5 | SILAC ratio Cope ([6]; competitor 200 μM): 0.9 | SILAC ratio, Scg2 ([7]; competitor 200 μM): 1.2

O=C(/C=C/c1cccnc1)NCCCCC1CCN(C(=O)c2ccccc2)CC1 [FK-866, reference compound]
SILAC ratio, Pmpca ([1]; competitor 25 μM): 1.2 | SILAC ratio, Ssr1 ([2]; competitor 25 μM): 1.3 | SILAC ratio, VDAC1 (P21796) ([3]; competitor 25 μM): 1.0 | SILAC ratio Lmf2 ([4]; competitor 25 μM): 1.2 | SILAC ratio Slc38a2 ([5]; competitor 25 μM): 1.0 | SILAC ratio Cope ([6]; competitor 25 μM): 1.5 | SILAC ratio, Scg2 ([7]; competitor 25 μM): 1.0

CN1CCN(C(=O)c2c(-c3ccccc3)c3cc([N+](=O)[O-])ccc3n2C)CC1 [KML110, (1-Methyl-5-nitro-3-phenyl-1H-indol-2-yl)(4-methylpiperazin-1-yl)methanone]
SILAC ratio, Pmpca ([1]; competitor 25 μM): 1.6 | SILAC ratio, Ssr1 ([2]; competitor 25 μM): 1.7 | SILAC ratio Lmf2 ([4]; competitor 25 μM): 1.7 | SILAC ratio Slc38a2 ([5]; competitor 25 μM): 1.2 | SILAC ratio, Scg2 ([7]; competitor 25 μM): 1.4

CN1CCN(C(=O)c2[nH]c3ccc([N+](=O)[O-])cc3c2-c2ccccc2)CC1 [MJN228, (4-Methylpiperazin-1-yl)(5-nitro-3-phenyl-1H-indol-2-yl)methanone]
SILAC ratio, Pmpca ([1]; competitor 10 μM): 1.2 | SILAC ratio, Pmpca ([1]; competitor 25 μM): 1.4 | SILAC ratio, Pmpca ([1]; competitor 50 μM): 1.4 | SILAC ratio, Pmpca ([1]; competitor 100 μM): 1.5 | SILAC ratio, Ssr1 ([2]; competitor 10 μM): 1.3 | SILAC ratio, Ssr1 ([2]; competitor 25 μM): 1.7 | SILAC ratio, Ssr1 ([2]; competitor 50 μM): 1.8 | SILAC ratio, Ssr1 ([2]; competitor 100 μM): 3.0 | SILAC ratio, VDAC1 (P21796) ([3]; competitor 25 μM): 1.1 | SILAC ratio Lmf2 ([4]; competitor 10 μM): 1.5 | SILAC ratio Lmf2 ([4]; competitor 25 μM): 1.7 | SILAC ratio Lmf2 ([4]; competitor 50 μM): 2.0 | SILAC ratio Lmf2 ([4]; competitor 100 μM): 2.5 | SILAC ratio Slc38a2 ([5]; competitor 10 μM): 1.2 | SILAC ratio Slc38a2 ([5]; competitor 25 μM): 1.3 | SILAC ratio Slc38a2 ([5]; competitor 100 μM): 1.2 | SILAC ratio Cope ([6]; competitor 25 μM): 1.2 | SILAC ratio, Scg2 ([7]; competitor 10 μM): 1.3 | SILAC ratio, Scg2 ([7]; competitor 25 μM): 1.5 | SILAC ratio, Scg2 ([7]; competitor 50 μM): 1.2 | SILAC ratio, Scg2 ([7]; competitor 100 μM): 1.1

C=CCN(C)CCCCCCOc1ccc(C(=O)c2ccc(Br)cc2)c(F)c1 [Ro 48-8071, reference compound]
SILAC ratio, Pmpca ([1]; competitor 25 μM): 0.9 | SILAC ratio, Ssr1 ([2]; competitor 25 μM): 1.3 | SILAC ratio, VDAC1 (P21796) ([3]; competitor 25 μM): 1.0 | SILAC ratio Lmf2 ([4]; competitor 25 μM): 1.3 | SILAC ratio Slc38a2 ([5]; competitor 25 μM): 0.7 | SILAC ratio Cope ([6]; competitor 25 μM): 1.1 | SILAC ratio, Scg2 ([7]; competitor 25 μM): 1.1
